Laboratory results from patent publication US9062119B2, “Modified peptide toxins” (University of Debrecen, priority 2011, dated 2015).
Like-named read-outs stand apart in the source and are kept apart here. Where a SMILES comes first, the peptide text is derived from it.

Assays:
Kv1.3 channels [1] = target: T1, Kv1.3 channels (Homo sapiens, UniProt P22001); assay: Whole-cell patch-clamp block of Kv1.3 currents in activated human peripheral T lymphocytes; format: cell-based
T1 construct: endogenous in cells
T1 sequence (P22001 whole entry): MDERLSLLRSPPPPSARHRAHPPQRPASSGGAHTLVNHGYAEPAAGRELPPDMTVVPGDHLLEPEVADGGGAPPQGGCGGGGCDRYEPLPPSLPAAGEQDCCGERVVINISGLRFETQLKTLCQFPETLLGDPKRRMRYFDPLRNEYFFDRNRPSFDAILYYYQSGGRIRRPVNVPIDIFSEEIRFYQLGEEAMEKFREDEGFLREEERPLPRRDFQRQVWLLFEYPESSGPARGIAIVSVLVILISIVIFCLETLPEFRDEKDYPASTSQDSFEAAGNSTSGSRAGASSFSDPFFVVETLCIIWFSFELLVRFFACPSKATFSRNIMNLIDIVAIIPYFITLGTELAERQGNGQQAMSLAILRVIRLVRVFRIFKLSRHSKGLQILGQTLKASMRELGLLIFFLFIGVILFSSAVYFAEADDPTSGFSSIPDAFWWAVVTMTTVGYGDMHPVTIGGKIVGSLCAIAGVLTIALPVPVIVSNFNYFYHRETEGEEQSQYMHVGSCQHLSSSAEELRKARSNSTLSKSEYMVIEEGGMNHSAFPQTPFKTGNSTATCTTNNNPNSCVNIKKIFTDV
Experimental: (§1) Dose-response relationships of the synthetic wild-type toxin and the single and double mutants on Kv1.3 channels The blocking efficiency of the toxins was tested on activated lymphocytes. The remaining current fraction (RCF) was calculated as I/I0, where I and I0 represent the whole-cell current amplitude in the presence and absence of the toxin at the indicated concentrations, respectively. Data points are plotted with error bars representing SEM and were fitted with a Hill-equation to obtain the Kd of the binding.
(§2) Kv1.3 currents were measured in human peripheral T lymphocytes. Heparinized human peripheral venous blood was obtained from healthy volunteers. Mononuclear cells were separated by Ficoll-Hypaque density gradient centrifugation. Collected cells were washed twice with Ca^2+ and Mg^2+ free Hank's solution containing 25 mM HEPES buffer (pH 7.4). Cells were cultured in a 5% CO2 incubator at 37° C. in 24 well culture plates in RPMI-1640 supplements with 10% FCS (Sigma-Aldrich, Hungary) 100 μg/ml penicillin, 100 μg/ml streptomycin and 2 mM L-glutamine at 0.5×10^6/ml density for 3-4 days. The culture medium also contained 2.5 or 5 μg/ml of phytohemagglutinin A (PHA-P, Sigma-Aldrich Kft, Hungary) to increase K^+ channel expression [Bagdany M, et al. Mol Pharmacol 2005; 67:1034-1044].
(§3) Whole-cell currents were measured in voltage-clamped cells using Axopatch 200A and Multiclamp 700B amplifiers connected to a personal computer using Axon Digidata 1200 and 1322A data acquisition hardware, respectively (Molecular Devices Inc., Sunnyvale, Calif.). Series resistance compensation up to 70% was used to minimize voltage errors and achieve good voltage-clamp conditions. […] The measured osmolarity of the external solutions was between 302 and 308 mOsm. […] The measured osmolarity of the internal solutions was approximately 295 mOsm. Bath perfusion around the measured cell with different test solutions was achieved using a gravity-flow perfusion system. […]

hKv1.2 = target: T2, hKv1.2 (Homo sapiens, UniProt P16389); details: natural toxin, Bagdany et al., 2005, read-out: Kd for Kv1.2, cited from earlier work
T2 construct: expressed in transfected cells; host or cells: Cos-7 cells, co-transfected with a separate GFP plasmid
T2 sequence (P16389 whole entry): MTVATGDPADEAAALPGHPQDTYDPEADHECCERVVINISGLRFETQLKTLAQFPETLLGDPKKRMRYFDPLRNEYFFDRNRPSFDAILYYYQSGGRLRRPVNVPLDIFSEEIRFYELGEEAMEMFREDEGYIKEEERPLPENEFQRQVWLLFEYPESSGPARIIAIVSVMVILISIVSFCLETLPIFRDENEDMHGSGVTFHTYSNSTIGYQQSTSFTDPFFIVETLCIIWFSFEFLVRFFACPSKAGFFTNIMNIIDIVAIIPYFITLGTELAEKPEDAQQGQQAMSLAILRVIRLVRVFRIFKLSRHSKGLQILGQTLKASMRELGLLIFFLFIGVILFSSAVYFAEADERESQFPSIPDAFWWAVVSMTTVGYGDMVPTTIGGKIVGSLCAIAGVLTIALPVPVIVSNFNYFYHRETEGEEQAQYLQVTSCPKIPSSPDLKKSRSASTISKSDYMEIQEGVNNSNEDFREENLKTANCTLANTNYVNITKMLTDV

Kv1.3 channels [2] = assay: Whole-cell patch-clamp block of Kv1.3 currents in activated human peripheral T lymphocytes; format: cell-based
Experimental: as §1, §2, §3

Kv1.3 channels [3] = target: T1, Kv1.3 channels; details: natural toxin, Bagdany et al., 2005; cited from earlier work
Kv1.3 [4] = details: found by Cahalan and Chandy 2009; read-out: IC50 for block of Kv1.3; cited from earlier work
Kv1.3 [5] = assay: Literature block of Kv1.3 by ADWX-1
Excerpt: Han, S et al. have applied a structural approach [Han S et al, J Biol Chem 2008; 283(27):19058-19065.] to improve Kv1.3 selectivity of scorpion toxins. The authors started from the BmKTX scorpion toxin (Bhutus martensi) and designed a peptide with three point mutations based on binding studies to the Kv1.3 K channel at the molecular interaction level. Specifically, glycine (G) 11 was substituted with arginine (R), isoleucine (I) 28 with threonine (T) and aspartate (D) 33 with histidine (H) (BmKTX-Arg11Thr28His33 or ADWX-1 in short). […] 2009 231(1): 59-87.].

CSCC[C@@H]1NC(=O)[C@@H]2CSSC[C@H](NC(=O)[C@H](CCC(=O)O)NC(=O)[C@H](CCCCN)NC(=O)[C@H](CC(N)=O)NC(=O)[C@H](C)NC(=O)[C@H](C)NC(=O)[C@H](C)N)C(=O)N[C@@H]([C@@H](C)O)C(=O)NCC(=O)N3CCC[C@H]3C(=O)N[C@@H](CCC(N)=O)C(=O)N[C@@H](Cc3c[nH]cn3)C(=O)N[C@H]3CSSC[C@H](NC(=O)[C@H](CCCCN)NC(=O)[C@H](CCCNC(=N)N)NC(=O)[C@H](CC(N)=O)NC1=O)C(=O)N[C@@H](CCCCN)C(=O)N[C@H]1CSSC[C@H](NC(=O)[C@H](Cc4ccccc4)NC(=O)[C@H](CC(N)=O)NC(=O)[C@H]([C@@H](C)O)NC3=O)C(=O)N[C@@H](CCCNC(=N)N)C(=O)N[C@@H](CC(=O)O)C(=O)N[C@@H](C)C(=O)N[C@@H](CCCCN)C(=O)N[C@@H](CSSC[C@@H](C(=O)N[C@@H](CCCCN)C(=O)O)NC(=O)[C@H](CC(N)=O)NC(=O)[C@H]([C@@H](C)O)NC1=O)C(=O)N[C@@H]([C@@H](C)O)C(=O)N[C@@H](Cc1c[nH]cn1)C(=O)NCC(=O)N[C@@H](CCCCN)C(=O)N2 [(N-AAAN, K16D, N17A, F32T)] (HELM PEPTIDE1{A.A.A.N.K.E.C.T.G.P.Q.H.C.T.N.F.C.R.D.A.K.C.T.H.G.K.C.M.N.R.K.C.K.C.T.N.C.K}$PEPTIDE1,PEPTIDE1,7:R3-27:R3|PEPTIDE1,PEPTIDE1,13:R3-32:R3|PEPTIDE1,PEPTIDE1,17:R3-34:R3|PEPTIDE1,PEPTIDE1,22:R3-37:R3$$$V2.0; N-terminus and C-terminus assumed; bridges inferred)
Kd (Kv1.3 channels [1]): 394 nM

Anuroctoxin [natural toxin]
Kd (hKv1.2; listed as Anuroctoxin): 6.14 nM | Kd (hKv1.2): 6.1 nM | selectivity ratio SR=Kd[1.2]/Kd[1.3] (Kv1.3 channels [2]): 9 | selectivity for Kv1.3 over Kv1.2 (Kv1.3 channels [2]; ratio of Kd,Kv1.2 and Kd,Kv1.3): 9 fold | Kd (Kv1.3 channels [3]): 0.73 nM

BmKTX-Arg11Thr28His33 [ADWX-1]
IC50 (Kv1.3 [4]): 1.2 nM | lower potency of Cahalan/Chandy value versus Han value (Kv1.3 [5]): 1000 fold
